Measurements from the supplement of paper PMC10307832.

Legend:
Experiment in all cases: relative viability (nuclei count vs DMSO), 5 days (fraction); higher = more cells survive
NCI-H647 = system: NCI-H647
Outline: (§1)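 Lung cancer cell lines in 1536-well plates were dosed by pin tool the day after seeding, either with one drug alone or with a fixed anchor-drug dose plus five library-drug doses (not always all listed) in √10 steps. After 5 days, cells were fixed and their nuclei stained in one step (final 0.05% Triton X-100, 1% formaldehyde, 1 ug/ml Hoechst), then counted on 4× images. Relative viability is the nuclei count in treated wells divided by that in vehicle wells. Values are medians of duplicate plates.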

NCI-H1437 = system: NCI-H1437
Outline: as §1

HCC-15 = system: HCC-15
Outline: as §1

NCI-H1651 = system: NCI-H1651
Outline: as §1

HCC-827 = system: HCC-827
Outline: as §1

UMC-11 = system: UMC-11
Outline: as §1

201T = system: 201T
Outline: as §1

EPLC-272H = system: EPLC-272H
Outline: as §1

COR-L 105 = system: COR-L 105
Outline: as §1

NCI-H727 = system: NCI-H727
Outline: as §1

NCI-H2087 = system: NCI-H2087
Outline: as §1

H3255 = system: H3255
Outline: as §1

COR-L23 = system: COR-L23
Outline: as §1

NCI-H1792 = system: NCI-H1792
Outline: as §1

NCI-H1975 = system: NCI-H1975
Outline: as §1

EKVX = system: EKVX
Outline: as §1

NCI-H358 = system: NCI-H358
Outline: as §1

NCI-H1650 = system: NCI-H1650
Outline: as §1

HCC-44 = system: HCC-44
Outline: as §1

ABC-1 = system: ABC-1
Outline: as §1

NCI-H520 = system: NCI-H520
Outline: as §1

LCLC-103H = system: LCLC-103H
Outline: as §1

NCI-H661 = system: NCI-H661
Outline: as §1

O=C(O)CCCCC(CCSCc1ccccc1)SCc1ccccc1 (stereo not drawn) [CPI-613] + COc1cccc2cc(-c3nc([C@H]4CC[C@H](C(=O)O)CC4)n4ncnc(N)c34)[nH]c12 [OSI-027] (partner 0.5 µM)
relative viability (NCI-H647; first compound 5 µM): 0.667 | relative viability (NCI-H647; first compound 15.81 µM): 0.498 | relative viability (NCI-H647; first compound 50 µM): 0.445 | relative viability (NCI-H647; first compound 158.11 µM): 0.147 | relative viability (NCI-H647; first compound 500 µM): 0.0299 | relative viability (NCI-H1437; first compound 5 µM): 0.892 | relative viability (NCI-H1437; first compound 15.81 µM): 0.814 | relative viability (NCI-H1437; first compound 50 µM): 0.818 | relative viability (NCI-H1437; first compound 158.11 µM): 0.245 | relative viability (NCI-H1437; first compound 500 µM): 0.0279 | relative viability (HCC-15; first compound 5 µM): 0.552 | relative viability (HCC-15; first compound 15.81 µM): 0.602 | relative viability (HCC-15; first compound 50 µM): 0.586 | relative viability (HCC-15; first compound 158.11 µM): 0.364 | relative viability (HCC-15; first compound 500 µM): 0.0388 | relative viability (NCI-H1651; first compound 5 µM): 0.66 | relative viability (NCI-H1651; first compound 15.81 µM): 0.79 | relative viability (NCI-H1651; first compound 50 µM): 0.616 | relative viability (NCI-H1651; first compound 158.11 µM): 0.333 | relative viability (NCI-H1651; first compound 500 µM): 0.0775 | relative viability (HCC-827; first compound 5 µM): 0.745 | relative viability (HCC-827; first compound 15.81 µM): 0.717 | relative viability (HCC-827; first compound 50 µM): 0.673 | relative viability (HCC-827; first compound 158.11 µM): 0.431 | relative viability (HCC-827; first compound 500 µM): 0.48 | relative viability (UMC-11; first compound 5 µM): 0.407 | relative viability (UMC-11; first compound 15.81 µM): 0.369 | relative viability (UMC-11; first compound 50 µM): 0.426 | relative viability (UMC-11; first compound 158.11 µM): 0.124 | relative viability (UMC-11; first compound 500 µM): 0.118 | relative viability (201T; first compound 5 µM): 0.754 | relative viability (201T; first compound 15.81 µM): 0.711 | relative viability (201T; first compound 50 µM): 0.606 | relative viability (201T; first compound 158.11 µM): 0.678 | relative viability (201T; first compound 500 µM): 0.818 | relative viability (EPLC-272H; first compound 5 µM): 0.279 | relative viability (EPLC-272H; first compound 15.81 µM): 0.307 | relative viability (EPLC-272H; first compound 50 µM): 0.263 | relative viability (EPLC-272H; first compound 158.11 µM): 0.261 | relative viability (EPLC-272H; first compound 500 µM): 0.0195 | relative viability (COR-L 105; first compound 5 µM): 0.605 | relative viability (COR-L 105; first compound 15.81 µM): 0.407 | relative viability (COR-L 105; first compound 50 µM): 0.49 | relative viability (COR-L 105; first compound 158.11 µM): 0.319 | relative viability (COR-L 105; first compound 500 µM): 0.105 | relative viability (NCI-H727; first compound 5 µM): 0.554 | relative viability (NCI-H727; first compound 15.81 µM): 0.624 | relative viability (NCI-H727; first compound 50 µM): 0.461 | relative viability (NCI-H727; first compound 158.11 µM): 0.339 | relative viability (NCI-H727; first compound 500 µM): 0.334 | relative viability (NCI-H2087; first compound 5 µM): 0.501 | relative viability (NCI-H2087; first compound 15.81 µM): 0.462 | relative viability (NCI-H2087; first compound 50 µM): 0.471 | relative viability (NCI-H2087; first compound 158.11 µM): 0.195 | relative viability (NCI-H2087; first compound 500 µM): 0.0169 | relative viability (H3255; first compound 5 µM): 0.569 | relative viability (H3255; first compound 15.81 µM): 0.501 | relative viability (H3255; first compound 50 µM): 0.612 | relative viability (H3255; first compound 500 µM): 0.471 | relative viability (COR-L23; first compound 5 µM): 0.738 | relative viability (COR-L23; first compound 15.81 µM): 0.584 | relative viability (COR-L23; first compound 50 µM): 0.562 | relative viability (COR-L23; first compound 158.11 µM): 0.169 | relative viability (COR-L23; first compound 500 µM): 0.0278 | relative viability (NCI-H1792; first compound 5 µM): 0.653 | relative viability (NCI-H1792; first compound 15.81 µM): 0.65 | relative viability (NCI-H1792; first compound 50 µM): 0.693 | relative viability (NCI-H1792; first compound 158.11 µM): 0.666 | relative viability (NCI-H1792; first compound 500 µM): 0.614 | relative viability (NCI-H1975; first compound 5 µM): 0.693 | relative viability (NCI-H1975; first compound 15.81 µM): 0.589 | relative viability (NCI-H1975; first compound 50 µM): 0.741 | relative viability (NCI-H1975; first compound 158.11 µM): 0.245 | relative viability (NCI-H1975; first compound 500 µM): 0.0526 | relative viability (EKVX; first compound 5 µM): 0.631 | relative viability (EKVX; first compound 15.81 µM): 0.624 | relative viability (EKVX; first compound 50 µM): 0.718 | relative viability (EKVX; first compound 158.11 µM): 0.673 | relative viability (EKVX; first compound 500 µM): 0.693 | relative viability (NCI-H358; first compound 15.81 µM): 0.655 | relative viability (NCI-H358; first compound 50 µM): 0.639 | relative viability (NCI-H358; first compound 158.11 µM): 0.303 | relative viability (NCI-H358; first compound 500 µM): 0.0233 | relative viability (NCI-H1650; first compound 5 µM): 0.592 | relative viability (NCI-H1650; first compound 15.81 µM): 0.566 | relative viability (NCI-H1650; first compound 50 µM): 0.58 | relative viability (NCI-H1650; first compound 158.11 µM): 0.14 | relative viability (NCI-H1650; first compound 500 µM): 0.0159 | relative viability (HCC-44; first compound 5 µM): 0.432 | relative viability (HCC-44; first compound 15.81 µM): 0.405 | relative viability (HCC-44; first compound 50 µM): 0.501 | relative viability (HCC-44; first compound 158.11 µM): 0.489 | relative viability (HCC-44; first compound 500 µM): 0.0788 | relative viability (ABC-1; first compound 5 µM): 0.404 | relative viability (ABC-1; first compound 15.81 µM): 0.443 | relative viability (ABC-1; first compound 50 µM): 0.49 | relative viability (ABC-1; first compound 158.11 µM): 0.175 | relative viability (ABC-1; first compound 500 µM): 0.167 | relative viability (NCI-H520; first compound 5 µM): 0.268 | relative viability (NCI-H520; first compound 15.81 µM): 0.243 | relative viability (NCI-H520; first compound 50 µM): 0.208 | relative viability (NCI-H520; first compound 158.11 µM): 0.179 | relative viability (NCI-H520; first compound 500 µM): 0.141 | relative viability (LCLC-103H; first compound 5 µM): 0.424 | relative viability (LCLC-103H; first compound 15.81 µM): 0.428 | relative viability (LCLC-103H; first compound 50 µM): 0.345 | relative viability (LCLC-103H; first compound 158.11 µM): 0.377 | relative viability (LCLC-103H; first compound 500 µM): 0.317 | relative viability (NCI-H661; first compound 5 µM): 0.684 | relative viability (NCI-H661; first compound 15.81 µM): 0.601 | relative viability (NCI-H661; first compound 50 µM): 0.597 | relative viability (NCI-H661; first compound 158.11 µM): 0.413 | relative viability (NCI-H661; first compound 500 µM): 0.126
